“Also recorded” adds a separate entry of the source. Positions of bridges follow the written chain, without caps; N, C: chain ends. Non-standard residues stand in square brackets, D forms with d. Residues, ends and D or L forms follow the SMILES beside them. S5 = C=CCCC[C@](C)(N)C(=O)O; Nle = CCCC[C@H](N)C(=O)O
Columns and labels:
[1] = system: BAX-overexpressing HeLa cells; experiment: Viability of transfected HeLa cells treated with staurosporine (CellTiter-Glo); assay type: cell-based; settings: 325 nM staurosporine, 24-hour treatment
Experimental: Viability of the transfected cells subjected to 24-hour treatment with 325 nM staurosporine or no treatment with staurosporine was determined by addition of CellTiter-Glo reagent (Promega). The data shown in FIG. 20A are representative of three independent experiments.
This BCL-2-based rescue is negated upon co-expression of BAX with the L23A mutant form of BCL-2 (FIG. 20A).

Recombinant BAX [2] = molecular target: T1, Recombinant BAX (Homo sapiens, UniProt Q07812); experiment: Liposomal ANTS/DPX release, BIM SAHBA-triggered BAX activation; assay type: biochemical; settings: 1.5 μM BIM SAHBA, 0.75 μM BAX, variety of peptide concentrations
T1 construct: made in house
Experimental: In these experiments, the BCL-2 BH4 SAHBA and unmodified BCL-2 BH4 peptide were incubated with 1.5 μM BIM SAHBA (Gavathiotis et al., Nature 455:1076-1081, 2008), 0.75 μM recombinant BAX protein, and 5 μL liposomes loaded with the ANTS and DPX (described above) at a variety of different concentrations.
A complete panel of BCL-2 BH4 SAHBA alanine and glutamine point mutants (0.75 μM) were screened for inhibition of BIM SAHBA (0.75 μM)-triggered BAX activation (0.75 μM) using the liposome release assay described above. The data were normalized to a 100% percent positive control level of liposome release achieved using BIM SAHBA and BAX alone, after correction for any intrinsic fluorescence detected for each FITC-labeled BCL-2 BH4 SAHB (0%). […] The alanine scanning data are also useful for designing the placement of staples in the BCL-2 BH4 peptides.

Recombinant BAX [3] = molecular target: T1, Recombinant BAX; experiment: HXMS of BH4 SAHBs after pre-equilibration with recombinant BAX protein; assay type: binding; settings: 15-minute pre-equilibration, 1:2 BAX protein to BH4 SAHB molar ratio
Experimental: (§1) The structural stability of the BCL-2 BH4 staple-scan panel of SAHBs was determined by hydrogen/deuterium mass spectrometry (HXMS). In these experiments, the BH4 SAHBs were labeled with deuterium for 2 seconds, 5 seconds, 10 seconds, 1 minute, 10 minutes, and 1 hour, followed by quenching with cold phosphate buffer (pH 2.5), and then immediately subjected to desalting and injection on a LCT Premier Mass Spectrometer (Waters Corporation). The relative uptake of deuterium was determined for each BH4 SAHB by dividing the mass of the corresponding undeuterated control. Labeling was performed with the BH4 SAHB peptide alone and following a 15-minute pre-equilibration with recombinant BAX protein (purified as previously described in Walensky et al. (Mol. Cell 24:199-210, 2006) and Gavathiotis et al. (Nature 455:1076-1081, 2008)) at a 1:2 BAX protein to BH4 SAHB peptide molar ratio.

Recombinant BAX [4] = molecular target: T1, Recombinant BAX; experiment: HXMS of recombinant BAX with liposomes, BIM SAHB with or without BCL-2 BH4 SAHBA; assay type: biochemical; settings: molar equivalent of BIM SAHB plus two molar excess of peptide
Experimental: Recombinant BAX protein was pre-equilibrated for 15 min with liposomes in the presence or absence of a molar equivalent of BIM SAHB (FIG. 15B) or a molar equivalent of BIM SAHB and a two molar excess of BCL-2 BH4 SAHBA (FIG. 15C), and then labeled with deuterium for 10 seconds, 1 minute, 10 minutes, and 2 hours. Following the corresponding incubation period in D20 buffer, each sample was quenched with ice-cold guanidine chloride buffer (pH 2.6) and then subjected to proteolysis on ice for 5 minutes. The samples were next injected on a custom Waters NanoACQUITY UPLC HDX Manager for analysis as described above. Mass spectra were obtained with a Synapt G2 mass spectrometer (Waters Corporation) and analyzed with the DynamX software package (Waters Corporation). The data shown in FIG. 15B are the duplicate of two experiments, where the relative difference (Da) shown for each BAX peptide fragment is equivalent to the relative deuterium uptake of the peptide in the BIM SAHB-activated BAX sample minus the relative deuterium uptake of the corresponding peptide in the BAX alone control. […] Mass spectra were obtained with a Synapt G2 mass spectrometer (Waters Corporation) and analyzed with the DynamX software package (Waters Corporation). […]

endogenous BAX = molecular target: T2, endogenous BAX (Homo sapiens, UniProt Q07812); experiment: Streptavidin pull-down of biotinylated SAHB from HeLa cell lysates; assay type: binding; settings: 20 μM biotinylated peptide, 16 hrs at 4° C.
T2 construct: endogenous in cells; host or cells: HeLa
Experimental: HeLa cell lysates (0.5 mg) were incubated with vehicle (DMSO), biotinylated BCL-2 BH4 SAHBA (20 μM), or BCL-2 BH4 SAHBA L23A (20 μM) for 16 hrs at 4° C. prior to addition of high-capacity streptavidin agarose resin (Thermo Scientific). After three successive washes, associated protein was eluted from the resin into LDS sample buffer and analyzed by Western blot with the anti-BAX N20 antibody (Santa Cruz). […] The immunoblot in FIG. 19B is representative of three independent experiments.

Recombinant BAX [5] = molecular target: T1, Recombinant BAX; experiment: HXMS of recombinant BAX with or without BCL-2 BH4 SAHBA; assay type: binding; settings: two molar excess of peptide, 10 seconds to 2 hours
Experimental: In additional studies, recombinant BAX protein was labeled with deuterium in the presence or absence of a two molar access of BCL-2 BH4 SAHBA for 10 seconds, 1 minute, 10 minutes, and 2 hours. Following the corresponding incubation period in D20 buffer, each sample was quenched with ice-cold phosphate buffer (pH 2.5) and injected on a custom Waters NanoACQUITY UPLC HDX Manager for analysis as described in Wales et al. (Anal. Chem. 80:6815-6820, 2008). Mass spectra were obtained with a Synapt G2 mass spectrometer (Waters Corporation) and analyzed with the DynamX software package (Waters Corporation). The data shown in FIG. 15A are the average of two duplicate experiments, where the relative difference (Da) shown for each peptide is equivalent to the relative deuterium uptake of the corresponding peptide in the BAX alone control minus the relative deuterium uptake of the peptide in the BCL-2 BH4 SAHBA-bound BAX sample. A significant relative difference is established as 0.4 Da. […] A significant relative difference in uptake is observed in the region of BAX al and the loop between α1 and α2, indicative of structural stabilization of this region of BAX protein as a result of BCL-2 BH4 SAHBA binding.

[6] = Hydrogen/deuterium mass spectrometry (HXMS) of BH4 SAHB peptide alone (structural stability); assay type: physicochemical; settings: deuterium labeling 2 seconds to 1 hour
Experimental: as §1

Recombinant BAX [7] = molecular target: T1, Recombinant BAX; experiment: BAX 6A7 immunoprecipitation (N-terminal conformational activation); assay type: biochemical; settings: 1 μM BAX, liposomes, 1 μM BIM SAHB, peptide 0-2.0 μM, 30 min
Experimental: An additional experiment was performed to determine whether BCL-2 BH4 SAHB binding would be capable of preventing the N-terminal unfolding characteristic of activated BAX. In this experiment, recombinant BAX was incubated with liposomes and a molar equivalent of BIM SAHB in the presence of increasing amounts of BCL-2 BH4 SAHBA or BCL-2 BH4 SAHBA L23A. After a 30 min pre-incubation period to allow for activation to proceed, the liposomal mixtures were subjected to immunoprecipitation with the BAX 6A7 antibody (Santa Cruz), which specifically recognizes the N-terminal epitope on BAX (residues 12-24) that is exposed during activation (Hsu et al., 1997). Immunoprecipitated protein was resolved by electrophoresis and immunoblotted with an antibody specific for BAX. […] Importantly, the L23A mutant version of the BH4 peptide, which was shown in the liposomal release assay to disrupt its inhibitory activity, had no effect on BAX 6A7 reactivity. The BAX 6A7 immunoprecipitation was carried out as follows. Recombinant BAX (1 μM) was mixed with liposomes and 1 μM BIM SAHB in the presence of increasing doses of BCL-2 BH4 SAHBA or BCL-2 BH4 SAHBA L23A (0 μM, 0.25 μM, 0.5 μM, 1.0 μM, and 2.0 μM). Following a 30 min incubation at room temperature, the mixture was immunoprecipitated with a-BAX 6A7 (Santa Cruz) and resolved by electrophoresis. […]

Recombinant BAX [8] = molecular target: T1, Recombinant BAX; experiment: Liposomal ANTS/DPX release, heat-induced BAX activation; assay type: biochemical; settings: 500 nM BAX, liposomes, 37° C.

T1 sequence (Q07812 whole entry): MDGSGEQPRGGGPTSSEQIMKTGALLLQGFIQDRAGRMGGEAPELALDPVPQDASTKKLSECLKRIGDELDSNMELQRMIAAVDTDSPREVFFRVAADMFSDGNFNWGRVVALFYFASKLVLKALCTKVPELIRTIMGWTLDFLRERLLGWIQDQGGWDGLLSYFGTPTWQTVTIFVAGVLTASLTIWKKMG
T2 sequence (Q07812 whole entry): as above

Compound | apoptosis of transfected HeLa cells [1] | BAX activation in response to BIM SAHBA treatment (liposomal poration) (Recombinant BAX [2]) | deuterium uptake of BH4 SAHB upon addition of recombinant BAX protein (Recombinant BAX [3]) | differences in relative uptake of BIM SAHB-treated BAX compared to BAX alone (Recombinant BAX [4]) | pull-down of BAX from HeLa cell lysates (endogenous BAX) | pull-down of BAX from HeLa cell lysates (endogenous BAX; listed as biotinylated-BCL-2 BH4 SAHBA) | deuterium uptake by BAX protein upon peptide engagement (Recombinant BAX [5]) | relative deuterium uptake of BH4 SAHB peptide alone [6] | BAX 6A7 reactivity (BIM SAHB-triggered BAX activation) (Recombinant BAX [7]) | heat-induced activation of BAX and BAX-mediated poration (Recombinant BAX [8])
CN[C@@H]1C[C@H]2O[C@@](C)([C@@H]1OC)n1c3ccccc3c3c4c(c5c6ccccc6n2c5c31)C(=O)NC4 [staurosporine] | induces apoptosis |  |  |  |  |  |  |  |  | 
CCCC[C@H](NC(=O)[C@@H](NC(=O)[C@@H](NC(=O)[C@H](CCC(=O)O)NC(C)=O)[C@@H](C)CC)C(C)C)C(=O)N[C@@H](CCCCN)C(=O)N[C@@H](Cc1ccc(O)cc1)C(=O)N[C@H](C(=O)N[C@@H](Cc1c[nH]cn1)C(=O)N[C@@H](Cc1ccc(O)cc1)C(=O)N[C@@H](CCCCN)C(=O)N[C@@H](CC(C)C)C(=O)N[C@@H](CO)C(=O)N[C@@]1(C)CCCC=CCCC[C@@](C)(C(=O)N[C@@H](Cc2c[nH]c3ccccc23)C(=O)N[C@@H](CC(=O)O)C(=O)N[C@@H](C)C(N)=O)NC(=O)[C@H](Cc2ccc(O)cc2)NC(=O)CNC(=O)[C@H](CCCNC(=N)N)NC1=O)[C@@H](C)CC [BCL-2 BH4 SAHBA] (Ac-EIV[Nle]KYIHYKLS[S5]RGY[S5]WDA-NH2; staple 13-17; N-terminus and C-terminus assumed) |  | dose-responsively decreased; also recorded: dose-responsively blocks | reduced uptake | complete suppression; also recorded: can block the changes in BAX conformation | specifically interacted | specifically immunoprecipitated | decrease in deuterium uptake | markedly reduced uptake | dose-responsively reduces; also recorded: dose-responsively inhibited | dose-responsively decreased

From patent US12528846B2, “BH4 stabilized peptides and uses thereof” (Dana-Farber Cancer Institute, Inc., priority 2013, dated 2026)
